Among the test systems are 786-0; NCI-H23; OVCAR-5; M14; MDA-N; DU-145; SK-MEL-28; MOLT-4; UO-31; HT-29; Malme-3M; MDA-MB-435; HOP-62; OVCAR-8; SNB-19; RXF 393; RPMI-8226; SK-OV-3; SF-539; MDA-MB-231.
Common to all, as to assay: NCI tumour cell line growth inhibition, 48 h

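1) Cells in 96-well plates. 2) Compound, 48 h, 5 concentrations. 3) Linear interpolation between surrounding doses. 4) Unreached endpoint = highest concentration. Abbreviation: GI50, concentration required for 50% inhibition of growth.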 The source made the active and inactive calls. Cut-off read from the data, not from the text of the source: active = GI50 up to about 1.1 µM and inactive = higher.

Take `CN1CC[C@@]2(c3cccc(O)c3)CC(=O)/C(=C/c3ccc(Cl)c(Cl)c3)[C@H]1C2`: the GI50 was 1.71 µM (inactive) with 786-0; 3.4 µM (inactive) with NCI-H23; 4.35 µM (inactive) with OVCAR-5; 2.25 µM (inactive) with M14; 1.87 µM (inactive) with MDA-N; 5.04 µM (inactive) in the experiment on DU-145. Besides, the GI50 in the experiment with SK-MEL-28 is 1.93 µM (inactive); in the experiment with MOLT-4, 3.15 µM (inactive); with UO-31, 2.07 µM (inactive); in the experiment on HT-29, 1.42 µM (inactive); in the experiment with Malme-3M, 3.44 µM (inactive); in the experiment with MDA-MB-435, 1.41 µM (inactive). Besides, the GI50 was 2.67 µM (inactive) in the experiment on HOP-62; 3.05 µM (inactive) in the experiment with OVCAR-8; 3.26 µM (inactive) in the experiment on SNB-19; 2.66 µM (inactive) in the experiment on RXF 393; 1.15 µM (inactive) in the experiment with RPMI-8226.
For `CC(=O)OCC1OC(n2c(-c3cccs3)c3c(c(C#N)c2=S)-c2ccccc2CC3)C(OC(C)=O)C(OC(C)=O)C1OC(C)=O` (stereo unspecified), the GI50 in the experiment on 786-0 was 9.27 µM (inactive); in the experiment on NCI-H23, 19.5 µM (inactive); with OVCAR-5 it was 26.5 µM (inactive); with SK-OV-3 it was 20.2 µM (inactive); in the experiment on M14, 7.67 µM (inactive); in the experiment with DU-145 it was 23.9 µM (inactive). Also, the GI50 in the experiment with SK-MEL-28 is 13.7 µM (inactive); with MOLT-4 it was 4.48 µM (inactive); in the experiment with UO-31, 2.97 µM (inactive); in the experiment on HT-29, 5.31 µM (inactive); in the experiment with Malme-3M it was 7.36 µM (inactive); in the experiment with SF-539, 9.57 µM (inactive). Further, the GI50 is 2.77 µM (inactive) in the experiment with MDA-MB-435; 11.9 µM (inactive) with HOP-62; 5.38 µM (inactive) in the experiment with OVCAR-8; 13 µM (inactive) in the experiment on SNB-19; 8.28 µM (inactive) in the experiment on RXF 393; 16.6 µM (inactive) with MDA-MB-231. Further, the GI50 with RPMI-8226 was 3.28 µM (inactive).
With `CN(C)C(=N)/N=C(\N)Nc1cccc(Cl)c1`, the GI50 with 786-0 was > 100 µM (inactive); in the experiment with NCI-H23, > 100 µM (inactive); with OVCAR-5, > 100 µM (inactive); in the experiment with SK-OV-3, > 100 µM (inactive); with M14, 58.2 µM (inactive); in the experiment with MDA-N it was 83.9 µM (inactive). Besides, the GI50 in the experiment on SK-MEL-28 was > 100 µM (inactive); with MOLT-4 it was > 100 µM (inactive); in the experiment with UO-31, 78 µM (inactive); in the experiment on HT-29 it was > 100 µM (inactive); with Malme-3M, 45.3 µM (inactive); in the experiment with SF-539 it was 47.8 µM (inactive). For the same compound, the GI50 with MDA-MB-435 is > 100 µM (inactive); with HOP-62, > 100 µM (inactive); in the experiment with OVCAR-8 it was 61.4 µM (inactive); in the experiment with SNB-19, > 100 µM (inactive); in the experiment on MDA-MB-231, 46.7 µM (inactive); in the experiment on RPMI-8226, > 100 µM (inactive).
On to `CN1c2ccccc2S(=O)(=O)n2c(CCc3ccccc3)nnc21`, for which the GI50 with 786-0 is 54.1 µM (inactive); in the experiment on NCI-H23 it was > 100 µM (inactive); with OVCAR-5, > 100 µM (inactive); in the experiment on SK-OV-3, > 100 µM (inactive); with M14 it was > 100 µM (inactive); in the experiment with MDA-N it was > 100 µM (inactive). For the same compound, the GI50 with DU-145, in the experiment with SK-MEL-28, in the experiment on MOLT-4, in the experiment on UO-31, with HT-29 and in the experiment on SF-539 was > 100 µM (inactive) throughout. Besides, the GI50 in the experiment on MDA-MB-435 was > 100 µM (inactive); in the experiment on HOP-62, 41.2 µM (inactive); in the experiment on OVCAR-8 it was > 100 µM (inactive); in the experiment with SNB-19 it was > 100 µM (inactive); with RXF 393, > 100 µM (inactive); in the experiment on MDA-MB-231 it was > 100 µM (inactive).
With `Cc1c(C#N)c(N)n(C2OC(CO)C(O)C(O)C2O)c(=S)c1C#N` (stereo unspecified), the GI50 in the experiment on 786-0 is > 100 µM (inactive); in the experiment with NCI-H23 it was > 100 µM (inactive); in the experiment with OVCAR-5 it was > 100 µM (inactive); in the experiment on SK-OV-3, 6.47 µM (inactive); in the experiment on M14 it was > 100 µM (inactive); in the experiment with MDA-N it was > 100 µM (inactive). Also, the GI50 in the experiment with DU-145, in the experiment on SK-MEL-28, with MOLT-4, in the experiment on UO-31, in the experiment on HT-29 and in the experiment on Malme-3M was > 100 µM (inactive) throughout. Moreover, the GI50 in the experiment with SF-539, in the experiment with HOP-62, with OVCAR-8, in the experiment with SNB-19, in the experiment with RXF 393 and with MDA-MB-231 was > 100 µM (inactive) in each case. The GI50 in the experiment with RPMI-8226 is > 100 µM (inactive).
For `N#CC(c1ccccc1)N(CCc1ccccc1)C(=O)c1ccc(C(=O)N(CCc2ccccc2)C(C#N)c2ccccc2)cc1` (stereo unspecified), the GI50 in the experiment with 786-0 was 22.6 µM (inactive); with NCI-H23, 25.5 µM (inactive); in the experiment on OVCAR-5, 19.8 µM (inactive); with SK-OV-3, 31.9 µM (inactive); with M14, 24.4 µM (inactive); in the experiment on MDA-N, 24 µM (inactive). The GI50 with DU-145 was 42.6 µM (inactive); with SK-MEL-28 it was 22.8 µM (inactive); in the experiment on MOLT-4, > 10 µM (inactive); in the experiment on UO-31 it was 19.4 µM (inactive); with HT-29 it was 19 µM (inactive); in the experiment with Malme-3M it was 19.3 µM (inactive). Moreover, the GI50 in the experiment with SF-539 was 19.5 µM (inactive); in the experiment on MDA-MB-435, 22.9 µM (inactive); in the experiment on OVCAR-8, 17.6 µM (inactive); with SNB-19, 30.5 µM (inactive); in the experiment with RXF 393 it was 21.3 µM (inactive); in the experiment with MDA-MB-231, 24.6 µM (inactive).
As for `COC(=O)/C=C/c1cc(O)c2c(c1)[C@H](C(=O)OC)[C@@H](c1ccc(O)c(O)c1)O2`, the GI50 in the experiment with 786-0 is 0.152 µM (active); with NCI-H23, 0.342 µM (active); in the experiment with OVCAR-5, 35.7 µM (inactive); in the experiment on SK-OV-3 it was 0.319 µM (active); with M14 it was 0.0386 µM (active); in the experiment on MDA-N, 0.0122 µM (active). Also, the GI50 was 0.273 µM (active) with DU-145; 0.132 µM (active) in the experiment with SK-MEL-28; 0.0753 µM (active) in the experiment with MOLT-4; 0.189 µM (active) in the experiment on UO-31; 3.16 µM (inactive) in the experiment on HT-29; 0.0311 µM (active) in the experiment on SF-539. Moreover, the GI50 with MDA-MB-435 is < 0.01 µM (active); with HOP-62 it was 0.333 µM (active); with OVCAR-8 it was 0.169 µM (active); in the experiment on SNB-19, 0.0386 µM (active); with RPMI-8226, 0.0618 µM (active).
Consider `CC(=O)Nc1nc2c(=O)c3ccccc3sc2s1`, for which the GI50 in the experiment on 786-0, in the experiment with NCI-H23, in the experiment with OVCAR-5, with M14, with MDA-N and in the experiment with DU-145 was > 100 µM (inactive) throughout. Moreover, the GI50 in the experiment with MOLT-4, in the experiment with UO-31, in the experiment on HT-29, in the experiment with SF-539, in the experiment with HOP-62 and with OVCAR-8 was > 100 µM (inactive) throughout. Besides, the GI50 in the experiment with SNB-19, in the experiment with RXF 393, in the experiment with MDA-MB-231 and in the experiment with RPMI-8226 was > 100 µM (inactive) throughout.
As to `Cc1c2c3cc(O)ccc3nc-2n(C)c2ccccc12`, the GI50 in the experiment with 786-0 was 0.53 µM (active); in the experiment with NCI-H23, 2.24 µM (inactive); in the experiment on OVCAR-5 it was 3.3 µM (inactive); with SK-OV-3 it was 1.46 µM (inactive); in the experiment on M14 it was 1.58 µM (inactive); with MDA-N it was 2.07 µM (inactive). Besides, the GI50 in the experiment on DU-145 is 3.08 µM (inactive); in the experiment on SK-MEL-28, 2.06 µM (inactive); in the experiment on MOLT-4 it was 0.399 µM (active); in the experiment with UO-31, 0.857 µM (active); in the experiment with HT-29, 1.1 µM (active); in the experiment with Malme-3M it was 1.48 µM (inactive). The GI50 with SF-539 is 1.7 µM (inactive); with MDA-MB-435 it was 1.36 µM (inactive); with HOP-62, 1.5 µM (inactive); in the experiment on OVCAR-8, 0.755 µM (active); in the experiment on SNB-19, 1.83 µM (inactive); in the experiment on RXF 393, 1.09 µM (active). Further, the GI50 with RPMI-8226 is 2.34 µM (inactive).
For the compound `CCc1ccc2c(c1)CC1(C2)Cc2cc3c(cc2C1)C(=O)CC3` (stereo unspecified), the GI50 with 786-0 was 25.6 µM (inactive); in the experiment with NCI-H23, 22.9 µM (inactive); in the experiment on OVCAR-5 it was 27.5 µM (inactive); in the experiment on SK-OV-3, 25.1 µM (inactive); in the experiment on M14, 25.9 µM (inactive); in the experiment on MDA-N, 2.25 µM (inactive). The GI50 is 43.9 µM (inactive) with UO-31; 6.31 µM (inactive) in the experiment on HT-29; 14.9 µM (inactive) in the experiment on Malme-3M; 18 µM (inactive) in the experiment on SF-539; 2.69 µM (inactive) in the experiment on MDA-MB-435; 19.8 µM (inactive) in the experiment with HOP-62. For the same compound, the GI50 in the experiment with OVCAR-8 is 21.9 µM (inactive); with RXF 393, 36.9 µM (inactive); in the experiment on MDA-MB-231, 21.2 µM (inactive); in the experiment on RPMI-8226, 18.5 µM (inactive).
As to `CCN(CC)CCNc1ccc2ncn3c4cc(OC)c(OC)c(O)c4c(=O)c1c23`, the GI50 in the experiment with 786-0 is 4.01 µM (inactive); in the experiment with NCI-H23, 2.69 µM (inactive); in the experiment with OVCAR-5 it was 21.5 µM (inactive); in the experiment on SK-OV-3 it was 12.5 µM (inactive); in the experiment on M14, 14.2 µM (inactive); with DU-145 it was 10.2 µM (inactive). Also, the GI50 was 14.4 µM (inactive) in the experiment on SK-MEL-28; 0.524 µM (active) in the experiment on MOLT-4; 12.3 µM (inactive) with UO-31; 3.8 µM (inactive) in the experiment on HT-29; 18 µM (inactive) in the experiment on Malme-3M; 9.06 µM (inactive) in the experiment with SF-539. Further, the GI50 in the experiment with MDA-MB-435 was 10 µM (inactive); in the experiment on HOP-62, 11.4 µM (inactive); in the experiment on OVCAR-8, 5.3 µM (inactive); in the experiment with SNB-19, 7.59 µM (inactive); in the experiment on RXF 393, 1.36 µM (inactive); in the experiment on MDA-MB-231 it was 5.93 µM (inactive). Also, the GI50 in the experiment with RPMI-8226 was 3.03 µM (inactive).
